# “And” between values parts separate entries of the source, which are not always exact repeats. Equal values may be shown once. Where a name gives a salt, the structure may show the parent alone.
# Columns and labels:
# [1] = after oral administration; cited from earlier work
# [2] = test system: rats with monocrotaline induced pulmonary arterial hypertension; test: Pulmonary arterial hypertension efficacy model: monocrotaline rat, hemodynamic evaluation; type: in vivo, Male Sprague-Dawley rats; conditions: for Right Ventricle (RV), Mean / Right Ventricle/Body Weight, Mean / Right Ventricular Pressure, Mean / Right Ventricular Systolic Pressure (RVSP), Mean: group mean; for Right Ventricle (RV), Mean / Right Ventricle/Body Weight, Mean / Right Ventricular Pressure, Mean / Right Ventricular Systolic Pressure (RVSP), Mean / Right Ventricle (RV) / Right Ventricle/Body Weight / Right Ventricular Pressure / Right Ventricular Systolic Pressure (RVSP): MCT 50 mg/kg s.c., Day 28; for Right Ventricle (RV) / Right Ventricle/Body Weight / Right Ventricular Pressure / Right Ventricular Systolic Pressure (RVSP): individual animals
# Description: The studies were conducted for hemodynamic evaluation of quetiapine in anesthetized sprague dawley rats treated with monocrotaline (“MCT”) to induce pulmonary arterial hypertension. Sildenafil was used as an internal control to compare the effects of Quetiapine.
# The effects of Quetiapine were evaluated in rats with monocrotaline induced pulmonary arterial hypertension using sildenafil as standard care treatment. Male Sprague-Dawley rats were orally administered vehicle, Quetiapine (40 mg/kg, divided into a BID regimen given every day for 28 days starting on Day 1), or sildenafil (100 mg/kg, administered once daily) (n=12 in each group). Rats received a single injection of monocrotaline (50 mg/kg, s.c.) on Study Day 1. On the twenty-eighth day following monocrotaline dosing, the rats were anesthetized with ketamine/xylazine for terminal monitoring of pulmonary and systemic arterial pressures along with heart rate.
# Vehicle (0.5% Methylcellulose+0.2% Tween 80 in deionized water, Quetiapine (40 mg/kg dib for 28 days; Sildenafil ([…], administered once daily)
# Male Sprague-Dawley rats in groups I, II, III and IV and V were administered 50 mg/kg of body weight of Monocrotaline in DMSO subcutaneously to induce PAH on day 1. The DMSO group (Group I, negative control) received a single dose of DMSO subcutaneously on day 1. The vehicle group received 5 ml of vehicle every morning. The Quetiapine as well as sildenafil groups were orally administered Quetiapine (40 mg/kg, divided into a BID regimen given every day for 28 days starting on Day 1), or sildenafil (100 mg/kg, administered once daily). On the twenty-eighth day after monocrotaline dosing, the rats were anesthetized with ketamine/xylazine for terminal monitoring of pulmonary and systemic arterial pressures along with heart rate.
# [3] = Quetiapine 40 mg/Kg bid p.o. for 28 days
# [4] = Sildenafil 100 mg/kg p.o. once daily
smiles,measurement,setting,value
OCCOCCN1CCN(C2=Nc3ccccc3Sc3ccccc32)CC1 [Quetiapine fumarate],time to reach peak plasma concentrations,[1],1.5 h
OCCOCCN1CCN(C2=Nc3ccccc3Sc3ccccc32)CC1 [Quetiapine],activity in controlling or reducing PAH compared with Sildenafil,"[2]; MCT rats, Quetiapine 40 mg/kg bid vs Sildenafil 100 mg/kg",comparable among with Sildenafil activity
same,systolic and mean pulmonary arterial pressures compared to the vehicle group,"[2]; after 28 days, Quetiapine 40 mg/kg bid, MCT rats",differences in systolic and mean pulmonary arterial pressures
same,"Right Ventricle (RV), Mean",[2]; [3],0.276 g
same,"Right Ventricle/Body Weight, Mean",[2]; [3],0.0008 g
same,"Right Ventricular Pressure, Mean",[2]; [3],22.414 mmHg
same,"Right Ventricular Systolic Pressure (RVSP), Mean",[2]; [3],47.511 mmHg
same,Right Ventricle (RV),[2]; [3],0.336 g and 0.337 g and 0.312 g and 0.260 g and 0.193 g and 0.353 g and 0.225 g and 0.276 g and 0.190 g
same,Right Ventricle/Body Weight,[2]; [3],0.0010 g (3×) and 0.0007 g and 0.0006 g (3×) and 0.0012 g and 0.0008 g
same,Right Ventricular Pressure,[2]; [3],27.940 mmHg and 21.646 mmHg and 22.967 mmHg and 16.792 mmHg and 19.956 mmHg and 24.109 mmHg and 28.929 mmHg and 18.440 mmHg and 20.951 mmHg
same,Right Ventricular Systolic Pressure (RVSP),[2]; [3],54.140 mmHg and 47.463 mmHg and 43.052 mmHg and 36.213 mmHg and 41.515 mmHg and 68.747 mmHg and 54.503 mmHg and 37.045 mmHg and 44.925 mmHg
CCCc1nn(C)c2c(=O)[nH]c(-c3cc(S(=O)(=O)N4CCN(C)CC4)ccc3OCC)nc12 [Sildenafil],"Right Ventricle (RV), Mean",[2]; [4],0.247 g
same,"Right Ventricle/Body Weight, Mean",[2]; [4],0.0006 g
same,"Right Ventricular Pressure, Mean",[2]; [4],13.929 mmHg
same,"Right Ventricular Systolic Pressure (RVSP), Mean",[2]; [4],29.648 mmHg
same,Right Ventricle (RV),[2]; [4],0.236 g and 0.440 g and 0.228 g and 0.207 g and 0.232 g and 0.308 g and 0.229 g and 0.261 g and 0.083 g
same,Right Ventricle/Body Weight,[2]; [4],0.0007 g (3×) and 0.0009 g and 0.0006 g (4×) and 0.0003 g
same,Right Ventricular Pressure,[2]; [4],16.804 mmHg and 11.481 mmHg and 15.226 mmHg and 11.673 mmHg and 14.427 mmHg and 14.139 mmHg and 16.310 mmHg and 12.947 mmHg and 12.352 mmHg
same,Right Ventricular Systolic Pressure (RVSP),[2]; [4],33.864 mmHg and 23.627 mmHg and 31.322 mmHg and 24.486 mmHg and 29.450 mmHg and 31.316 mmHg and 32.922 mmHg and 34.262 mmHg and 25.579 mmHg

# Reference: US11478483B2, “Method of treating hypertension” (Cipla Limited, priority 2017, dated 2022)
